From patent US12643871B2, “Aryl formamide compound containing chiral sulfur oxide or salt thereof, preparation method, herbicidal composition and use thereof” (Qingdao Kingagroot Chemical Compound Co., Ltd., priority 2019, dated 2026)

What was measured:
Format in all cases: in vivo
[1] = system: key weeds such as Digitaria sanguinalis, Leptochloa chinensis; assay: Comparison experiment (post-emergence, Tables 4-7), herbicidal activity on weeds not listed separately; settings: for activity to key weeds such as Digitaria sanguinalis, Leptochloa chinensis compared with the corresponding racemate or S configuration: dose of 125, 60, 30, 15 g/ha
Source text: (§1) The above growth control rates are fresh weight control rates.
(§2) Experiment on weeding effect in post-emergence stage: monocotyledonous and dicotyledonous weed seeds (Descurainia sophia, Capsella bursa-pastoris, Galium aparine, Stellaria media, Lithospermum arvense, Rorippa indica, Alopecurus aequalis, Beckmannia syzigachne, Sclerochloa dura, Phleum paniculatum, Bromus japonicus, Aegilops tauschii, Phalaris arundinacea, Amaranthus retroflexus, Chenopodiaceae, Commelina communis, Sonchus arvensis, convolvulus arvensis, Cirsium setosum, Solanum nigrum, Acalypha australis, Digitaria sanguinalis, Echinochloa crusgalli, Setaria viridis, Setaria glauca, Leptochloa chinensis, Monochoria vaginalis, Sagittaria trifolia, Scirpus juncoides, Cyperus rotundus, Cyperus iria, Cyperus difformis, Fimbristylis, Portulaca oleracea, Xanthium sibiricum, Pharbitis nil) and major crop seeds (wheat, corn, rice, soybean, cotton, oilseed rape, millet, sorghum, potato, sesame, ricinus) were placed in plastic pots filled with soil, then covered with 0.5-2 cm of soil, allowed to grow in a good greenhouse environment. After 2 weeks of sowing, the test plants were treated in the 2 leaf stage. The tested compounds of the present invention were respectively dissolved in acetone, then added with Tween 80 and 1.5 liter/ha of emulsifiable concentrate of methyl oleate as synergist, diluted with a certain amount of water to obtain a solution with a certain concentration, and sprayed with a spray tower onto the plants. After the application, the plants were cultured for 15 days in the greenhouse, and then the experimental results of the weeding were counted. The doses of the used compounds were 500, 250, 125, 60, 30, 15 g/ha, and the averages were obtained by repeating for three times.
(§3) If there is no clear marker, the post-seedling test conditions are the same as above, and the experimental results are shown in Tables 4-7.

rice and other crops = assay: Comparison experiment (post-emergence, Tables 4-7), crop safety; settings: dose of 125, 60, 30, 15 g/ha
Source text: as §1, §2, §3

Digitaria sanguinalis = assay: Weeding effect in post-emergence stage; settings: 250 g/ha; 2 leaf stage; 15 days after application; fresh weight control rate
How it was run: (§4)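 Post-emergence spray, 2-leaf stage; doses 500–15 g/ha; acetone + Tween 80 + methyl oleate EC (1.5 L/ha) as synergist. Greenhouse 15 d. Readout: fresh weight control rate graded levels 0–5 (5 = above 85%, 0 = below 5%); triplicate means.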

Abutilon theophrasti = assay: Weeding effect in post-emergence stage; settings: 250 g/ha; 2 leaf stage; 15 days after application; fresh weight control rate
How it was run: as §4

Amaranthus retroflexus = assay: Weeding effect in post-emergence stage; settings: 250 g/ha; 2 leaf stage; 15 days after application; fresh weight control rate
How it was run: as §4

Setaria viridis = assay: Weeding effect in post-emergence stage; settings: 250 g/ha; 2 leaf stage; 15 days after application; fresh weight control rate
How it was run: as §4

Echinochloa crusgali = assay: Weeding effect in post-emergence stage; settings: 250 g/ha; 2 leaf stage; 15 days after application; fresh weight control rate
How it was run: as §4

SMILES | activity to key weeds such as Digitaria sanguinalis, Leptochloa chinensis compared with the corresponding racemate or S configuration [1] | safety to rice and other crops compared with the corresponding racemate or S configuration (rice and other crops) | weeding effect in post-emergence stage, activity level (growth control rate), Digitaria sanguinalis (Digitaria sanguinalis) | weeding effect in post-emergence stage, activity level (growth control rate), Abutilon theophrasti (Abutilon theophrasti) | weeding effect in post-emergence stage, activity level (growth control rate), Amaranthus retroflexus (Amaranthus retroflexus) | weeding effect in post-emergence stage, activity level (growth control rate), Setaria viridis (Setaria viridis) | weeding effect in post-emergence stage, activity level (growth control rate), Echinochloa crusgali (Echinochloa crusgali) | herbicidal activity and/or crop safety compared with the corresponding racemate or S configuration ([1]; no dose stated) | herbicidal activity and/or crop safety compared with the corresponding racemate or S configuration ([1]; dose of 120, 48, 30, 24 g/ha)
CC[S@@+]([O-])c1c(C(F)(F)F)ccc(C(=O)Nc2nnc(C)o2)c1F [Compound 2] | better activity | higher safety | 4 (Level 4: growth control rate is greater than or equal to 60% and less than 85%) | 5 (Level 5: growth control rate is above 85%) | 5 (Level 5: growth control rate is above 85%) | 4 (Level 4: growth control rate is greater than or equal to 60% and less than 85%) | 5 (Level 5: growth control rate is above 85%) | – | –
CCCCC[S@@+]([O-])c1c(C(F)(F)F)ccc(C(=O)Nc2nnc(C)o2)c1F [Compound 8] | better activity | higher safety | 4 (Level 4: growth control rate is greater than or equal to 60% and less than 85%) | 5 (Level 5: growth control rate is above 85%) | 5 (Level 5: growth control rate is above 85%) | 4 (Level 4: growth control rate is greater than or equal to 60% and less than 85%) | 5 (Level 5: growth control rate is above 85%) | – | –
Cc1nnc(NC(=O)c2ccc(C(F)(F)F)c([S@+]([O-])CCC3CC3)c2F)o1 [Compound 17] | better activity | higher safety | 5 (Level 5: growth control rate is above 85%) | 5 (Level 5: growth control rate is above 85%) | 5 (Level 5: growth control rate is above 85%) | 5 (Level 5: growth control rate is above 85%) | 5 (Level 5: growth control rate is above 85%) | – | –
C=CCC[S@@+]([O-])c1c(C(F)(F)F)ccc(C(=O)Nc2nnc(C)o2)c1F [Compound 20] | better activity | higher safety | 5 (Level 5: growth control rate is above 85%) | 5 (Level 5: growth control rate is above 85%) | 5 (Level 5: growth control rate is above 85%) | 5 (Level 5: growth control rate is above 85%) | 5 (Level 5: growth control rate is above 85%) | – | –
Cc1nnc(NC(=O)c2ccc(C(F)(F)F)c([S@+]([O-])CC=C(Cl)Cl)c2F)o1 [Compound 40] | better activity | higher safety | 5 (Level 5: growth control rate is above 85%) | 5 (Level 5: growth control rate is above 85%) | 5 (Level 5: growth control rate is above 85%) | 5 (Level 5: growth control rate is above 85%) | 5 (Level 5: growth control rate is above 85%) | – | –
Cc1nnc(NC(=O)c2ccc(C(F)(F)F)c([S@+]([O-])CCC#N)c2F)o1 [Compound 52] | better activity | higher safety | 5 (Level 5: growth control rate is above 85%) | 5 (Level 5: growth control rate is above 85%) | 5 (Level 5: growth control rate is above 85%) | 5 (Level 5: growth control rate is above 85%) | 5 (Level 5: growth control rate is above 85%) | – | –
Cc1nnc(NC(=O)c2ccc(C(F)(F)F)c([S@+]([O-])CCO)c2F)o1 [Compound 54] | better activity | higher safety | 5 (Level 5: growth control rate is above 85%) | 5 (Level 5: growth control rate is above 85%) | 5 (Level 5: growth control rate is above 85%) | 5 (Level 5: growth control rate is above 85%) | 5 (Level 5: growth control rate is above 85%) | – | –
Cc1nnc(NC(=O)c2ccc(C(F)(F)F)c([S@+]([O-])CC3COC3)c2F)o1 [Compound 80] | better activity | higher safety | – | – | 5 (Level 5: growth control rate is above 85%) | – | 5 (Level 5: growth control rate is above 85%) | – | –
Cc1nnc(NC(=O)c2ccc(C(F)(F)F)c([S@+]([O-])Cc3cn(C)nc3C)c2F)o1 [Compound 184] | better activity | higher safety | – | – | 5 (Level 5: growth control rate is above 85%) | – | 5 (Level 5: growth control rate is above 85%) | – | –
CC[S@@+]([O-])c1c(C(F)(F)F)ccc(C(=O)N(c2nnc(C)o2)C(C)OC(=O)OC)c1F (stereo partly shown) [Compound 248] | better activity | higher safety | – | – | 5 (Level 5: growth control rate is above 85%) | – | 5 (Level 5: growth control rate is above 85%) | – | –
CCC[S@@+]([O-])c1c(C(F)F)ccc(C(=O)Nc2nnc(C)o2)c1OC [Compound 864] | – | – | 5 (Level 5: growth control rate is above 85%) | 5 (Level 5: growth control rate is above 85%) | 5 (Level 5: growth control rate is above 85%) | 5 (Level 5: growth control rate is above 85%) | 5 (Level 5: growth control rate is above 85%) | better herbicidal activity and/or crop safety | –
CCC[S@@+]([O-])c1c(C(F)F)ccc(C(=O)Nc2nnc(C)o2)c1SC [Compound 865] | – | – | 5 (Level 5: growth control rate is above 85%) | 5 (Level 5: growth control rate is above 85%) | 5 (Level 5: growth control rate is above 85%) | 5 (Level 5: growth control rate is above 85%) | 5 (Level 5: growth control rate is above 85%) | – | better herbicidal activity and/or crop safety
